Data: PubChem BioAssay AID248 (DTP/NCI, 2004)
Toxic doses and inconclusive results are not listed. No stated cut-off is given here; in the data, active means T/C of 150% or more; inactive means T/C below 125%.

Test system: L1210 leukemia ip in BDF1 mice, survival T/C
Assay: NCI In Vivo Anticancer Drug Screen. Data for tumor model L1210 Leukemia (intraperitoneal) in B6D2F1 (BDF1) mice
Conditions: endpoint: mean survival time, higher = longer survival
Outline: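 Value reflects the ratio of survival in compound-treated mice to survival in vehicle-treated controls, with both groups carrying the same transplanted tumor.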

[1] = dose: 50.0 mg/kg/injection, schedule: Q01DX001 (ip), vehicle: saline
[2] = dose: 100.0 mg/kg/injection, schedule: Q01DX001 (ip), vehicle: saline
[3] = dose: 200.0 mg/kg/injection, schedule: Q01DX001 (ip), vehicle: saline
[4] = dose: 400.0 mg/kg/injection, schedule: Q01DX001 (ip), vehicle: saline
[5] = dose: 100.0 mg/kg/injection, schedule: Q04DX002 (ip), vehicle: Klucel (hydroxypropylcellulose) (HPC)
[6] = dose: 200.0 mg/kg/injection, schedule: Q04DX002 (ip), vehicle: Klucel (hydroxypropylcellulose) (HPC)
[7] = dose: 100.0 mg/kg/injection, schedule: Q04DX003 (ip), vehicle: saline with Tween-80
[8] = dose: 100.0 mg/kg/injection, schedule: Q01DX009 (ip), vehicle: Klucel (hydroxypropylcellulose) (HPC)
[9] = dose: 200.0 mg/kg/injection, schedule: Q01DX009 (ip), vehicle: Klucel (hydroxypropylcellulose) (HPC)
[10] = dose: 400.0 mg/kg/injection, schedule: Q01DX009 (ip), vehicle: Klucel (hydroxypropylcellulose) (HPC)
[11] = dose: 100.0 mg/kg/injection, schedule: Q01DX001 (ip), vehicle: other
[12] = dose: 200.0 mg/kg/injection, schedule: Q01DX001 (ip), vehicle: other
[13] = dose: 400.0 mg/kg/injection, schedule: Q01DX001 (ip), vehicle: other
[14] = dose: 100.0 mg/kg/injection, schedule: Q04DX003 (ip), vehicle: Klucel (hydroxypropylcellulose) (HPC)
[15] = dose: 200.0 mg/kg/injection, schedule: Q04DX003 (ip), vehicle: Klucel (hydroxypropylcellulose) (HPC)
[16] = dose: 400.0 mg/kg/injection, schedule: Q04DX003 (ip), vehicle: Klucel (hydroxypropylcellulose) (HPC)
[17] = dose: 50.0 mg/kg/injection, schedule: Q01DX009 (ip), vehicle: saline with Tween-80
[18] = dose: 400.0 mg/kg/injection, schedule: Q04DX002 (ip), vehicle: Klucel (hydroxypropylcellulose) (HPC)
[19] = dose: 50.0 mg/kg/injection, schedule: Q01DX009 (ip), vehicle: Klucel (hydroxypropylcellulose) (HPC)

Measured: T/C

Cc1ccc(C)c(NS(C)(=O)=O)c1
inactive: [1] 96 % of control | [2] 91 % of control | [3] 102 % of control | [4] 102 % of control

Nc1nc(N)nc(COc2ccccc2Cl)n1
inactive: [5] 119 % of control | [6] 90 % of control

CCCC[C@H]1C(=O)O[C@H](C)[C@H](NC(=O)c2cccc(NC=O)c2O)C(=O)O[C@@H](C)[C@@H]1OC(=O)CC(C)C
inactive: dose: 0.5 mg/kg/injection, schedule: Q01DX001 (ip), vehicle: carboxymethylcellulose (CMC) 92 % of control | dose: 1.0 mg/kg/injection, schedule: Q01DX001 (ip), vehicle: carboxymethylcellulose (CMC) 101 % of control | dose: 2.0 mg/kg/injection, schedule: Q01DX001 (ip), vehicle: carboxymethylcellulose (CMC) 94 % of control

O=C(O)CS(=O)(=O)Cc1ccc(Cl)cc1
inactive: dose: 100.0 mg/kg/injection, schedule: Q04DX002 (ip), vehicle: saline with Tween-80 95 % of control | dose: 200.0 mg/kg/injection, schedule: Q04DX002 (ip), vehicle: saline with Tween-80 113 % of control | dose: 400.0 mg/kg/injection, schedule: Q04DX002 (ip), vehicle: saline with Tween-80 95 % of control

C=[CH][Pb]([CH]=C)([O]C(=O)C(C)C)[O]C(=O)C(C)C
inactive: dose: 5.0 mg/kg/injection, schedule: Q04DX003 (ip), vehicle: saline 104 % of control | dose: 10.0 mg/kg/injection, schedule: Q04DX003 (ip), vehicle: saline 106 % of control | dose: 20.0 mg/kg/injection, schedule: Q04DX003 (ip), vehicle: saline 101 % of control

COc1ccc(C2=NC(=O)C(C(=O)c3ccccc3)O2)cc1 (centres undefined)
inactive: [2] 94 % of control | [3] 96 % of control | [4] 96 % of control

CCCn1ccc(N)nc1=O
inactive: dose: 75.0 mg/kg/injection, schedule: Q01DX001 (ip), vehicle: Klucel (hydroxypropylcellulose) (HPC) 116 % of control | dose: 150.0 mg/kg/injection, schedule: Q01DX001 (ip), vehicle: Klucel (hydroxypropylcellulose) (HPC) 119 % of control | dose: 300.0 mg/kg/injection, schedule: Q01DX001 (ip), vehicle: Klucel (hydroxypropylcellulose) (HPC) 111 % of control

CC(=O)OCC1OC(N2CCc3cc([N+](=O)[O-])ccc32)C(OC(C)=O)C(OC(C)=O)C1OC(C)=O (centres undefined)
inactive: [1] 97 % of control | [2] 96 % of control | [3] 96 % of control

Cc1cc(=O)[nH]c(C(F)(F)F)n1
inactive: dose: 44.0 mg/kg/injection, schedule: Q01DX Z (ip), vehicle: methylcellulose (MC) 93 % of control | dose: 66.0 mg/kg/injection, schedule: Q01DX Z (ip), vehicle: methylcellulose (MC) 107 % of control | dose: 100.0 mg/kg/injection, schedule: Q01DX Z (ip), vehicle: methylcellulose (MC) 102 % of control

CN(C)S(=O)(=O)c1ccccc1C1(O)CCCCC1
inactive: dose: 100.0 mg/kg/injection, schedule: Q01DX009 (ip), vehicle: other 87 % of control | [7] 91 % of control | dose: 200.0 mg/kg/injection, schedule: Q01DX009 (ip), vehicle: other 94 % of control | dose: 200.0 mg/kg/injection, schedule: Q04DX003 (ip), vehicle: saline with Tween-80 102 % of control | dose: 400.0 mg/kg/injection, schedule: Q01DX009 (ip), vehicle: other 97 % of control | dose: 400.0 mg/kg/injection, schedule: Q04DX003 (ip), vehicle: saline with Tween-80 109 % of control

CCOc1ccc(N)c(S)c1
inactive: dose: 13.3 mg/kg/injection, schedule: Q01DX Z (ip), vehicle: methylcellulose (MC) 105 % of control | dose: 20.0 mg/kg/injection, schedule: Q01DX Z (ip), vehicle: methylcellulose (MC) 97 % of control | dose: 30.0 mg/kg/injection, schedule: Q01DX Z (ip), vehicle: methylcellulose (MC) 95 % of control

C=CCNC(=S)NNC(=O)c1ccncc1
inactive: [8] 107 % of control | [9] 108 % of control | [10] 104 % of control

CC(=O)/C(C)=N/O
inactive: [2] 98 % of control | [3] 98 % of control | [4] 96 % of control

O=C(O)C(Cc1ccc(O)cc1)N(S(=O)(=O)Cc1ccccc1)S(=O)(=O)Cc1ccccc1 (centres undefined)
inactive: [11] 88 % of control | dose: 100.0 mg/kg/injection, schedule: Q04DX003 (ip), vehicle: other 95 % of control | [12] 97 % of control | dose: 200.0 mg/kg/injection, schedule: Q04DX003 (ip), vehicle: other 98 % of control | [13] 108 % of control | dose: 400.0 mg/kg/injection, schedule: Q04DX003 (ip), vehicle: other 88 % of control

Clc1ccc2c3c(cccc13)CC2
inactive: dose: 75.0 mg/kg/injection, schedule: Q01DX001 (ip), vehicle: carboxymethylcellulose (CMC) 97 % of control | dose: 150.0 mg/kg/injection, schedule: Q01DX001 (ip), vehicle: carboxymethylcellulose (CMC) 97 % of control | dose: 300.0 mg/kg/injection, schedule: Q01DX001 (ip), vehicle: carboxymethylcellulose (CMC) 97 % of control

COc1ccc(C2C(=O)c3ccc(OC)c(OC)c3C2=O)cc1OC (centres undefined)
inactive: [2] 94 % of control | [3] 89 % of control

CCOC1(OCC)CCC2(CC1)c1ccccc1-c1ccccc12
inactive: [14] 92 % of control | [15] 93 % of control | [16] 95 % of control

c1ccc2c(c1)Cc1ccccc1CN(CCNC1=NCCN1)C2
inactive: dose: 25.0 mg/kg/injection, schedule: Q01DX009 (ip), vehicle: saline with Tween-80 91 % of control | [17] 102 % of control | [7] 98 % of control

Cc1cc(Cl)c(Cl)cc1NC(=O)c1ccc(Cl)cc1Cl
inactive: [5] 108 % of control | [6] 94 % of control | [18] 108 % of control

OCC(O)C(O)C(O)C(O)C(SCc1ccccc1)SCc1ccccc1 (centres undefined)
inactive: [5] 98 % of control | [6] 92 % of control | [18] 92 % of control

S=C(Nc1ccccc1)NC1CCC(CC2CCCCC2)CC1 (centres undefined)
inactive: dose: 75.0 mg/kg/injection, schedule: Q01DX009 (ip), vehicle: Klucel (hydroxypropylcellulose) (HPC) 105 % of control | [14] 108 % of control | dose: 150.0 mg/kg/injection, schedule: Q01DX009 (ip), vehicle: Klucel (hydroxypropylcellulose) (HPC) 107 % of control | [15] 108 % of control

Cc1[nH]c(N)nc(=S)c1CCCOc1ccc([N+](=O)[O-])cc1
inactive: [19] 112 % of control | [8] 96 % of control | [9] 102 % of control

NC1(C(=O)O)CCCC2CCCCC21 (centres undefined)
inactive: [8] 100 % of control | [5] 93 % of control | [9] 96 % of control | [6] 93 % of control | [10] 91 % of control | [18] 96 % of control

O=C(COc1ccccc1[N+](=O)[O-])Nc1ccccc1C(=O)O
inactive: dose: 100.0 mg/kg/injection, schedule: Q01DX001 (ip), vehicle: saline with Tween-80 92 % of control | dose: 200.0 mg/kg/injection, schedule: Q01DX001 (ip), vehicle: saline with Tween-80 92 % of control

CC(=O)N(N=Nc1ccc(Cl)cc1)c1ccc(Cl)cc1
inactive: [17] 98 % of control | dose: 100.0 mg/kg/injection, schedule: Q01DX009 (ip), vehicle: saline with Tween-80 98 % of control | dose: 200.0 mg/kg/injection, schedule: Q01DX009 (ip), vehicle: saline with Tween-80 98 % of control

CC(C)NNC(=O)c1ccccc1N
inactive: dose: 25.0 mg/kg/injection, schedule: Q01DX009 (ip), vehicle: Klucel (hydroxypropylcellulose) (HPC) 103 % of control | dose: 25.0 mg/kg/injection, schedule: Q04DX003 (ip), vehicle: Klucel (hydroxypropylcellulose) (HPC) 96 % of control | [19] 98 % of control | dose: 50.0 mg/kg/injection, schedule: Q04DX003 (ip), vehicle: Klucel (hydroxypropylcellulose) (HPC) 89 % of control | [8] 93 % of control | [14] 91 % of control | [9] 92 % of control | [15] 100 % of control | [16] 94 % of control

O=S(=O)(F)c1ccc(-c2cc(Cl)c3c(Br)cc(Br)cc3n2)cc1
inactive: [14] 100 % of control | [15] 94 % of control | [16] 102 % of control

CN(C(=O)Nc1ccccc1F)C1CCCCC1
inactive: [19] 101 % of control | [8] 90 % of control | [9] 96 % of control

CCCCC(C#N)C(O)C1CCCCC1 (centres undefined)
inactive: [11] 100 % of control | [12] 103 % of control | [13] 103 % of control

Clc1ccc(C=Nc2cccc3ccccc23)c(Cl)c1
inactive: [8] 90 % of control | [9] 98 % of control | [10] 93 % of control
